Where “and” joins values, the source holds several entries; their conditions need not be identical. Identical values can stand only once.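 Interpolation was linear, between the two tested concentrations surrounding the appropriate level; five concentrations were tested over 48 hours in 96-well plates. GI50 is the concentration that inhibits growth by half. TGI: total growth inhibition.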
Columns and labels:
Assay in all cases: DTP human tumour cell line panel, 48 h
A549 NSCLC = tested on: A549 NSCLC
UACC-62 melanoma = tested on: UACC-62 melanoma
OVCAR-3 ovarian = tested on: OVCAR-3 ovarian
MDA-MB-435 = tested on: MDA-MB-435
SW-620 colon = tested on: SW-620 colon
BT-549 breast = tested on: BT-549 breast
OVCAR-4 ovarian = tested on: OVCAR-4 ovarian
SK-MEL-2 melanoma = tested on: SK-MEL-2 melanoma
RXF 393 renal = tested on: RXF 393 renal
HOP-92 NSCLC = tested on: HOP-92 NSCLC

Compound	GI50 (A549 NSCLC)	TGI (A549 NSCLC)	GI50 (UACC-62 melanoma)	TGI (UACC-62 melanoma)	GI50 (OVCAR-3 ovarian)	TGI (OVCAR-3 ovarian)	GI50 (MDA-MB-435)	TGI (MDA-MB-435)	GI50 (SW-620 colon)	TGI (SW-620 colon)	GI50 (BT-549 breast)	TGI (BT-549 breast)	GI50 (OVCAR-4 ovarian)	TGI (OVCAR-4 ovarian)	GI50 (SK-MEL-2 melanoma)	TGI (SK-MEL-2 melanoma)	GI50 (RXF 393 renal)	TGI (RXF 393 renal)	GI50 (HOP-92 NSCLC)	TGI (HOP-92 NSCLC)
Oc1ccccc1-n1c(-c2ccccc2)ccc1-c1ccccc1	4.62 µM	19.6 µM	5.43 µM	> 100 µM	9.54 µM	21.7 µM	2.81 µM	20.9 µM	5.49 µM	20.2 µM	13.4 µM	89.5 µM	7.24 µM	23.3 µM	4.63 µM	19.4 µM	7.93 µM	23 µM	1.94 µM	8.54 µM
O=C(/C=C/c1ccco1)Nc1ncc(Cc2ccc(F)cc2)s1	0.118 µM	> 100 µM	0.0555 µM	> 100 µM	0.0336 µM	0.141 µM	0.0219 µM	0.0558 µM	0.0443 µM	> 100 µM	0.368 µM	> 25.3 µM	1.22 µM	> 100 µM	0.115 µM	> 100 µM	0.122 µM	0.593 µM	8.56 µM	> 100 µM
CC(C)(C)CC(C)(C)c1ccc(OCCOCCSC(=N)N)cc1	2.65 µM	8.77 µM	1.75 µM	3.24 µM	2.05 µM	4.48 µM	1.51 µM	2.84 µM	1.65 µM	3.34 µM	3.84 µM	16 µM	1.54 µM	3.1 µM	2.02 µM	3.49 µM	1.78 µM	3.59 µM	1.89 µM	7.92 µM
CC(=O)Oc1cccc2c1C(=O)c1c(OC(C)=O)cc(C)cc1C2=O	–	> 100 µM	–	> 100 µM	–	> 100 µM	–	> 100 µM	–	> 100 µM	–	> 100 µM	–	> 100 µM	–	> 100 µM	–	> 100 µM	–	> 100 µM
O=C1/C(=C/c2cccs2)CCC/C1=C\c1cccs1	68.3 µM	> 100 µM	> 54.3 µM	> 100 µM	23.8 µM	> 100 µM	> 100 µM	> 100 µM	> 100 µM	> 100 µM	> 58.3 µM	> 100 µM	14.6 µM	45.2 µM	47.8 µM	> 100 µM	26.4 µM	> 100 µM	10.6 µM	57.8 µM
CC1(C)OCN(c2ccc(Cl)cc2)Cn2c1nc1ccccc12	–	> 100 µM	–	5.58 µM	–	> 100 µM	–	> 100 µM	–	> 100 µM	–	> 100 µM	–	> 100 µM	–	> 100 µM	–	> 100 µM	–	> 100 µM
COc1ccc(/C=C2\N=C3SC=C(N)N3C2=O)cc1	1.64 µM	15.6 µM	1.07 µM	2.76 µM	1.14 µM	2.98 µM	0.808 µM	6.06 µM	1.34 µM	6.07 µM	0.73 µM	3.84 µM	0.485 µM	11 µM	1.02 µM	2.75 µM	0.303 µM	1.58 µM	0.224 µM	1.93 µM
COc1ccccc1-n1c(SCc2cc(OC)c(OC)c(OC)c2)nc2ccc(Cl)cc2c1=O	2.87 µM	> 100 µM	3.04 µM	> 100 µM	2.21 µM	15.9 µM	0.366 µM	25.8 µM	2.59 µM	> 100 µM	3.95 µM	> 100 µM	7.35 µM	> 100 µM	4.88 µM	> 100 µM	3.78 µM	> 100 µM	2.78 µM	99.6 µM
Oc1c(CN2CCCC2)cc(COCc2ccccc2)c2cccnc12	3.35 µM	14.1 µM	1.81 µM	7.7 µM	2.13 µM	13.3 µM	4.43 µM	26.3 µM	3.27 µM	18.2 µM	3.52 µM	18.1 µM	0.903 µM	13.6 µM	4.68 µM	20.1 µM	2.11 µM	8.29 µM	7.15 µM	26.6 µM
COc1ccc2c3c(c(OCCCN(C)C)nc2c1)-c1ccc(Cl)cc1C3=O	4.39 µM	23.1 µM	10.7 µM	23.6 µM	3.55 µM	16.7 µM	5.53 µM	18.7 µM	1.56 µM	12.9 µM	14.2 µM	28.3 µM	2.83 µM	17.2 µM	19.6 µM	40.3 µM	7.24 µM	20.1 µM	1.78 µM	11.8 µM
CC(C)C(N)(C(=O)O)c1ccccc1 (centres undefined)	–	> 100 µM	–	> 100 µM	–	> 100 µM	–	> 100 µM	–	> 100 µM	–	> 100 µM	–	> 100 µM	–	> 100 µM	–	> 100 µM	–	> 100 µM
Cc1nc(NC(=O)N2CCC[C@H]2C(N)=O)sc1-c1ccnc(C(C)(C)C(F)(F)F)c1	2.94 µM and 4.74 µM	30.9 µM and > 10 µM	3.18 µM and 3.05 µM	18.7 µM and > 10 µM	4.16 µM and 8 µM	30.7 µM and > 10 µM	7.33 µM and > 10 µM	51.6 µM and > 10 µM	4.82 µM and 7.37 µM	> 67.1 µM	4.91 µM and 6.33 µM	44.6 µM and > 10 µM	13.3 µM and > 10 µM	> 75.3 µM	6.94 µM and > 10 µM	24.1 µM and > 10 µM	2.78 µM and 3.45 µM	17.3 µM and > 10 µM	0.0598 µM and 0.13 µM	1.52 µM and 2.89 µM
CN(C)c1ccc(/C=C/c2ccnc3ccccc23)cc1	4.14 µM	> 100 µM	3.11 µM	> 100 µM and 29.5 µM	2.71 µM	–	1.36 µM	72.6 µM and 20.7 µM	2.96 µM	> 100 µM	1.88 µM	> 100 µM and 14.6 µM	16.8 µM	> 100 µM	26.2 µM	> 100 µM	13.4 µM	> 100 µM	0.651 µM	> 100 µM and 10.8 µM

From PubChem BioAssay (NCI)
